# Measured values taken from US10292981B2, “Oxazoline and isoxazoline derivatives as CRAC modulators” (LUPIN LIMITED, priority 2010, dated 2019).
# Tests used:
# Assay type in all cases: cell-based
# SOCE, Jurkat E6.1 cells = assay: SOCE inhibition (thapsigargin/calcium influx, FLIPR); conditions: Homo sapiens, thapsigargin, calcium chloride
# Protocol: SOCE inhibition: Jurkat E6.1 cells were seeded at a density of 1-2×10^5 cells per well in calcium-4 dye prepared in calcium free HBSS (Sigma, USA). Test compounds from this invention were added to the cells at different concentrations. This was followed by the addition of thapsigargin (TG), a SERCA inhibitor, to empty the stores of calcium. Calcium chloride was added to the cells after 10-30 min to induce calcium influx and the fluorescence was measured for 10 min using the FLIPR-Tetra detection system. Fluorescence was also measured using a plate reader at 485 nm excitation and 520 nm emission (Synergy2, Biotek, USA) after 30-90 minutes of calcium addition. Fluorescence observed in cells treated with Thapsigargin and calcium chloride solution was considered 100% maximal signal and the reduced fluorescent signal observed in the presence of test compounds was expressed as percent inhibition of the maximal signal. The dose response data was analyzed using 4-parametric sigmoidal dose response (variable slope) curve-fit.
# [1] = test system: NFAT-Luc reporter gene, HEK 293 cells; assay: NFAT transcriptional activity (NFAT-Luc reporter); conditions: Homo sapiens, HEK293, thapsigargin
# Protocol: NFAT Transcriptional Activity: HEK 293 cells were stably transfected with a NFAT-Luc reporter gene. 30,000-80,000 cells were seeded per well. Test compounds from this invention were added to the cells at different concentrations. Thapsigargin (TG) was added after 10 mins and the cells were incubated for 4-8 h. NFAT transcriptional activity was measured using BrightGlo reagent (Promega USA). Luminescence observed in cells treated with thapsigargin was considered 100% maximal signal and the reduced fluorescent signal observed in the presence of test compounds was expressed as percent inhibition of the maximal signal. The data was analyzed using 4-parametric sigmoidal dose response (variable slope) curve-fit.
# [2] = test system: IL-2 secretion, Jurkat T cells; assay: Inhibition of IL-2 secretion (PHA-stimulated Jurkat T cells, ELISA); conditions: Homo sapiens; Jurkat T cells stimulated with PHA, 20 to 24 hours
# Protocol: The CRAC channel modulatory activity of the compounds were thus evaluated by measuring the secretion of IL-2 by antigen stimulated T-cells in vitro. Alternatively, such activity can also be evaluated by assay methods known to one skilled in the art.
# Inhibition of IL-2 secretion: Jurkat T cells were seeded at a density of 0.5 to 1 million cells per well in RPMI medium. Test compounds from this invention were added to the cells at different concentrations. This was followed by the addition of PHA, a T cell mitogen after 10 minutes.
# The cells were then incubated for 20 to 24 hours in a CO2 incubator at 37° C. After incubation with the compounds, cells were centrifuged, collected the supernatant and processed for ELISA to quantitate the amount of IL-2 secreted. A commercial ELISA kit (R&D Systems, Inc. Minneapolis, Minn., USA) was used to estimate the IL-2 concentrations. Amount of IL-2 secreted by cells stimulated with PHA was considered as a 100% maximal signal and the decrease in amount of IL-2 secreted by cells treated with the test compounds was expressed as percent inhibition of the maximal signal. The dose response data was analyzed using 4-parametric sigmoidal dose response (variable slope) curve-fit.
SMILES,"IC50 (SOCE, Jurkat E6.1 cells) [nM]",IC50 [2] [nM],IC50 [1] [nM]
"COc1ccc(-c2nn(C)c(=O)o2)cc1-c1ccc(NC(=O)c2c(F)cccc2Cl)cc1 [Example 41, 2-Chloro-6-fluoro-N-(2′-methoxy-5′-(4-methyl-5-oxo-4,5-dihydro-1,3,4-oxadiazol-2-yl)[1,1′-biphenyl]-4-yl)benzamide]",< 1000,–,–
"Cc1nnsc1C(=O)Nc1ccc(-c2cccc(-c3nn(C)c(=O)o3)c2C)cc1 [Example 50, 4-Methyl-N-(2′-methyl-3′-(4-methyl-5-oxo-4,5-dihydro-1,3,4-oxadiazol-2-yl)-[1,1′-biphenyl]-4-yl)-1,2,3-thiadiazole-5-carboxamide]",–,–,< 500
"CCc1ccc(C2=NOC(C)(C)C2=O)cc1-c1ccc(C(=O)Nc2c(F)cccc2F)s1 [Example 157, N-(2,6-Difluorophenyl)-5-(5-(5,5-dimethyl-4-oxo-4,5-dihydroisoxazol-3-yl)-2-ethyl-phenyl)thiophene-2-carboxamide]",–,< 100,–
"CCc1ccc(C2=NOC(C)(C)C2=O)cc1-c1ccc(C(=O)Nc2ccncc2C)s1 [Example 158, 5-(5-(5,5-Dimethyl-4-oxo-4,5-dihydroisoxazol-3-yl)-2-ethylphenyl)-N-(3-methylpyridin-4-yl)thiophene-2-carboxamide]",–,< 100,–
"COc1ccc(C2=NOC(C)(C)C2=O)cc1-c1ccc(C(=O)Nc2c(F)cccc2F)s1 [Example 160, N-(2,6-Difluorophenyl)-5-(5-(5,5-dimethyl-4-oxo-4,5-dihydroisoxazol-3-yl)-2-methoxy-phenyl)thiophene-2-carboxamide]",< 1000,< 100,–
"CCc1ccc(-c2nn(C)c(=O)o2)cc1-c1ccc(C(=O)Nc2c(F)cccc2F)s1 [Example 171, N-(2,6-Difluorophenyl)-5-(2-ethyl-5-(4-methyl-5-oxo-4,5-dihydro-1,3,4-oxadiazol-2-yl)phenyl)thiophene-2-carboxamide]",–,< 100,–
"Cn1nc(-c2ccc(OC(F)F)c(-c3ccc(C(=O)Nc4c(F)cccc4F)s3)c2)oc1=O [Example 173, 5-(2-(Difluoromethoxy)-5-(4-methyl-5-oxo-4,5-dihydro-1,3,4-oxadiazol-2-yl)phenyl)-N-(2,6-difluorophenyl) thiophene-2-carboxamide]",–,< 100,–
"Cc1c(-c2nn(C)c(=O)o2)cccc1-c1ccc(C(=O)Nc2c(F)cccc2F)s1 [Example 176, N-(2,6-Difluorophenyl)-5-(2-methyl-3-(4-methyl-5-oxo-4,5-dihydro-1,3,4-oxadiazol-2-yl)phenyl)thiophene-2-carboxamide]",< 1000,< 100,< 500

# Continued, in another order:
"IC50 (SOCE, Jurkat E6.1 cells) [nM]",IC50 [2] [nM],SMILES,IC50 [1] [nM]
< 1000,–,"COc1ccc(C2=NOC(C)(C)C2=O)cc1-c1ccc(NC(=O)c2c(F)cccc2F)cc1 [Example 15, N-(5′-(5,5-dimethyl-4-oxo-4,5-dihydroisoxazol-3-yl)-2′-methoxy-[1,1′-biphenyl]-4-yl)-2,6-difluorobenzamide]",–
–,< 100,"Cc1c(C2=NOC(C)(C)C2=O)cccc1-c1ccc(NC(=O)c2c(F)cccc2F)cc1 [Example 29, N-(3′-(5,5-Dimethyl-4-oxo-4,5-dihydroisoxazol-3-yl)-2′-methyl-[1,1′-biphenyl]-4-yl)-2,6-difluorobenzamide]",< 500
–,100 to 1000,"C=CCOc1ccc(C2=NOC(C)(C)C2=O)cc1-c1ccc(NC(=O)c2c(F)cccc2F)cc1 [Example 132, N-(2′-(allyloxy)-5′-(5,5-dimethyl-4-oxo-4,5-dihydroisoxazol-3-yl)-[1,1′-biphenyl]-4-yl)-2,6-difluorobenzamide]",–
< 1000,< 100,"CNc1ccc(C2=NOC(C)(C)C2=O)cc1-c1ccc(NC(=O)c2c(F)cccc2F)cc1 [Example 135, N-(5′-(5,5-Dimethyl-4-oxo-4,5-dihydroisoxazol-3-yl)-2′-(methylamino)-[1,1′-biphenyl]-4-yl)-2,6-difluorobenzamide]",< 500
–,100 to 1000,"CN(C)c1ccc(C2=NOC(C)(C)C2=O)cc1-c1ccc(NC(=O)c2c(F)cccc2F)cc1 [Example 136, N-(5′-(5,5-Dimethyl-4-oxo-4,5-dihydroisoxazol-3-yl)-2′-(dimethylamino)-[1,1′-biphenyl]-4-yl)-2,6-difluorobenzamide]",–
–,> 1000,"Cc1ccc(C2=NOC(CO)(CCO)C2)cc1-c1ccc(NC(=O)c2c(F)cccc2F)cc1 (centres unmarked) [Example 145, 2,6-Difluoro-N-(5′-(5-(2-hydroxyethyl)-5-(hydroxymethyl)-4,5-dihydroisoxazol-3-yl)-2′-methyl-[1,1′-biphenyl]-4-yl)benzamide]",–
